We go through 10 compounds from ChEMBL document CHEMBL1201862, “PubChem BioAssay data set” (2004).

Molecules are shown by their SMILES.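 How tested: cells in 96-well plates exposed to compound for 48 hours at five concentrations. Abbreviation: GI50, concentration required for 50% inhibition of growth.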 Calls of active or inactive are those of the source. Cut-off read from the data, not from the text of the source: active = GI50 up to about 1.1 µM and inactive = higher.

Holding throughout (test): growth of human tumour cells (NCI), 48 h
In test [1] the test system is OVCAR-8.
For test [2], the system named is NCI-H460.
The test system of test [3] is RXF 393.
In test [4] the test system is EKVX.
In test [5] the test system is TK-10.
Test [6] deals with CAKI-1.
For test [7], the system named is HCT-15.
Test [8] concerns SF-295.
The test system of test [9] is NCI/ADR-RES.
The subject of test [10] is SNB-19.
For test [11], the system named is SNB-75.
Test [12] has as its system LOX IMVI.
Test [13] has as its system NCI-H226.
The subject of test [14] is UACC-257.
Test [15] concerns DU-145.
The test system of test [16] is MDA-N.
For test [17], the system named is MCF7.
For test [18], the system named is Hs-578T.
For test [19], the system named is HOP-62.
The subject of test [20] is T47D.

Consider `COc1ccc2c(c1)[nH]c1c3ccc(OC)cc3oc(=O)c21`, for which the GI50 in [1], in test [2], in test [3], in [4], in [5] and in test [6] was > 100 µM (inactive) each time. In addition, the GI50 is 5.27 µM in [7]; > 100 µM (inactive) in test [8]; > 100 µM (inactive) in test [9]; > 100 µM (inactive) in test [10]; 25.1 µM (inactive) in [11]; > 100 µM (inactive) in test [12]. Also, the GI50 in [13] is > 100 µM (inactive); in [14] it was > 100 µM (inactive); in [15], > 100 µM (inactive); in test [16], 0.9 µM (active); in test [17], 5.73 µM (inactive); in test [18], 55.2 µM (inactive). The GI50 in test [19] and in test [20] was > 100 µM (inactive) each time.
As to `CCOC(=O)C(=O)/C(=C/NC(=S)c1ccncc1)C(=O)OCC`, the GI50 was > 100 µM (inactive) in test [1]; > 100 µM (inactive) in test [2]; > 100 µM (inactive) in test [3]; > 100 µM (inactive) in test [4]; > 100 µM (inactive) in [6]; above 100 µM in test [7]. Further, the GI50 was > 100 µM (inactive) in test [8]; > 100 µM (inactive) in [9]; 9.68 µM (inactive) in [10]; > 100 µM (inactive) in test [11]; > 100 µM (inactive) in test [12]; > 100 µM (inactive) in test [13]. Moreover, the GI50 in test [14], in [15], in [16], in test [17], in [18] and in [19] was > 100 µM (inactive) in each case. Also, the GI50 in test [20] was > 100 µM (inactive).
In the case of `COc1cc2c3cc1Oc1c(OC)c(OC)cc4c1C(Cc1ccc(O)c(c1)-c1cc(ccc1OC)CC3N(C)CC2)N(C)CC4` (stereo unspecified), the GI50 in test [1] was 17.4 µM (inactive); in test [2] it was 16 µM (inactive); in [3], 1.96 µM (inactive); in test [4] it was 25.6 µM (inactive); in test [5], 32.9 µM (inactive); in test [6] it was 16.4 µM (inactive). In addition, the GI50 was 6.07 µM in test [7]; 16.5 µM (inactive) in test [8]; 25.9 µM (inactive) in [9]; 22.3 µM (inactive) in test [10]; 18.7 µM (inactive) in [11]; 4.8 µM (inactive) in [12]. Besides, the GI50 in test [13] was 40.6 µM (inactive); in [14] it was 21 µM (inactive); in test [15], 50.8 µM (inactive); in test [16] it was 13.6 µM (inactive); in [17], 16.5 µM (inactive); in test [18], 21.3 µM (inactive). In addition, the GI50 in test [20] is 24.2 µM (inactive).
For the compound `CCc1c(-c2ccc(OC)cc2)c(=O)oc2cc(O)ccc12`, the GI50 was 49.1 µM (inactive) in [1]; 23.9 µM (inactive) in test [2]; 54.5 µM (inactive) in [3]; 29.4 µM (inactive) in [4]; 39.3 µM (inactive) in [6]; 25.9 µM in test [7]. In addition, the GI50 is 35.6 µM (inactive) in test [8]; 22.1 µM (inactive) in test [9]; 56.1 µM (inactive) in test [10]; 73.3 µM (inactive) in test [11]; 30.1 µM (inactive) in test [12]; 56.6 µM (inactive) in [13]. In addition, the GI50 is 25.9 µM (inactive) in test [14]; 33.2 µM (inactive) in [15]; 28.1 µM (inactive) in test [16]; 32.7 µM (inactive) in test [17]; 30.7 µM (inactive) in test [18]; 54 µM (inactive) in test [19]. The GI50 in test [20] was 30.6 µM (inactive).
Consider `O=C1c2ccccc2C(=O)c2c(NC(=O)c3ccc4c5c(ncnc35)-c3ccccc3C4=O)cccc21`, for which the GI50 is > 100 µM (inactive) in test [1]; > 100 µM (inactive) in test [2]; 22.6 µM (inactive) in test [3]; > 100 µM (inactive) in test [4]; 21.8 µM (inactive) in test [5]; > 100 µM (inactive) in [6]. The GI50 in test [7] is above 100 µM; in test [8], 23.4 µM (inactive); in test [9] it was > 100 µM (inactive); in [10] it was 33.9 µM (inactive); in [11], 18.7 µM (inactive); in [13], > 100 µM (inactive). The GI50 in test [14] was > 100 µM (inactive); in [15] it was > 100 µM (inactive); in test [16], > 100 µM (inactive); in test [17], > 100 µM (inactive); in [18] it was 57.1 µM (inactive); in test [19], 14.7 µM (inactive). The GI50 in test [20] is > 100 µM (inactive).
Consider `CCn1c(=O)c2c3cc(O)ccc3oc2c2ccc(O)cc21`, for which the GI50 in [1] is 36.7 µM (inactive); in test [2], 26.9 µM (inactive); in test [3], 30.1 µM (inactive); in test [4], 24.7 µM (inactive); in test [5], 24.8 µM (inactive); in test [6], 34.3 µM (inactive). Moreover, the GI50 was 31 µM in [7]; 25 µM (inactive) in test [8]; 37.8 µM (inactive) in [9]; 21.9 µM (inactive) in [10]; 22.9 µM (inactive) in test [11]; 37.1 µM (inactive) in test [13]. For the same compound, the GI50 in test [14] was 76.6 µM (inactive); in [15], 29.4 µM (inactive); in test [16] it was 30 µM (inactive); in test [17] it was 28.6 µM (inactive); in [18] it was 5.46 µM (inactive); in test [19], 28.8 µM (inactive). Besides, in test [20], the GI50 was 12.6 µM (inactive).
As to `CCSC1=N/C(=C\c2ccc(N(C)C)cc2)C(Cl)=N1`, the GI50 in [1] was > 100 µM (inactive); in [2], > 100 µM (inactive); in [3] it was 25.2 µM (inactive); in test [4], > 100 µM (inactive); in test [5], > 100 µM (inactive); in [6], > 100 µM (inactive). Further, the GI50 in test [7] is above 100 µM; in [8], > 100 µM (inactive); in [9], > 100 µM (inactive); in test [10], > 100 µM (inactive); in test [11], > 100 µM (inactive); in test [13] it was > 100 µM (inactive). The GI50 in test [14], in test [15], in test [16], in [17], in test [18] and in test [19] was > 100 µM (inactive) throughout. Besides, the GI50 in [20] is 37.7 µM (inactive).
As to `C/C(=N\NC(=S)N1CCCCC1)c1cccc(C)n1`, the GI50 in [1] is < 0.01 µM (active); in test [2], < 0.0136 µM (active); in [3], 0.238 µM (active); in [4], < 0.01 µM (active); in test [6] it was < 0.01 µM (active); in [7] it was below 0.01 µM. Moreover, the GI50 was 0.056 µM (active) in test [8]; < 0.01 µM (active) in test [9]; < 0.0143 µM (active) in test [10]; 0.196 µM (active) in test [11]; < 0.01 µM (active) in test [12]; < 0.01 µM (active) in test [13]. The GI50 in [14] was < 0.01 µM (active); in [15], 0.153 µM (active); in test [16] it was 0.0871 µM (active); in test [17] it was < 0.01 µM (active); in [18], 22.3 µM (inactive); in test [19] it was < 0.01 µM (active). Also, the GI50 in test [20] was < 0.01 µM (active).
For the compound `O=C1NC(N2CCOCC2)=N/C1=C\c1cccs1`, the GI50 is > 100 µM (inactive) in test [1]; > 100 µM (inactive) in test [3]; > 100 µM (inactive) in test [4]; > 100 µM (inactive) in test [5]; > 100 µM (inactive) in [6]; above 100 µM in test [7]. For the same compound, the GI50 in test [8] was > 100 µM (inactive); in test [9], > 100 µM (inactive); in test [10], > 100 µM (inactive); in test [11] it was 30.2 µM (inactive); in test [12], > 100 µM (inactive); in test [13], > 100 µM (inactive). Further, the GI50 in [14], in test [15], in test [16], in test [17], in [18] and in [19] was > 100 µM (inactive) in each case. In addition, the GI50 in test [20] was > 100 µM (inactive).
As to `c1ccc([P+](Cc2ccccc2C[P+](c2ccccc2)(c2ccccc2)c2ccccc2)(c2ccccc2)c2ccccc2)cc1`, the GI50 was > 100 µM (inactive) in [1]; 38.9 µM (inactive) in test [2]; > 100 µM (inactive) in [3]; > 100 µM (inactive) in test [5]; > 100 µM (inactive) in test [6]; above 100 µM in test [7]. Also, the GI50 in test [8] is 57.8 µM (inactive); in [9], > 100 µM (inactive); in [10], 50.6 µM (inactive); in test [11], > 100 µM (inactive); in [12], 37.6 µM (inactive); in test [13], > 100 µM (inactive). Also, the GI50 in test [14] is > 100 µM (inactive); in test [15], > 100 µM (inactive); in [16], 30.3 µM (inactive); in [17], > 100 µM (inactive); in [18], > 100 µM (inactive); in test [19], > 100 µM (inactive). Besides, the GI50 in [20] was > 100 µM (inactive).
